For this test, the target named is T1, human liver glycogen phosphorylase (Homo sapiens, UniProt P06737).
T1 construct: made in house; host or cells: Sf9 insect cells (suspension of disrupted cells, diluted in BES buffer, not purified)
T1 sequence (P06737 1-847): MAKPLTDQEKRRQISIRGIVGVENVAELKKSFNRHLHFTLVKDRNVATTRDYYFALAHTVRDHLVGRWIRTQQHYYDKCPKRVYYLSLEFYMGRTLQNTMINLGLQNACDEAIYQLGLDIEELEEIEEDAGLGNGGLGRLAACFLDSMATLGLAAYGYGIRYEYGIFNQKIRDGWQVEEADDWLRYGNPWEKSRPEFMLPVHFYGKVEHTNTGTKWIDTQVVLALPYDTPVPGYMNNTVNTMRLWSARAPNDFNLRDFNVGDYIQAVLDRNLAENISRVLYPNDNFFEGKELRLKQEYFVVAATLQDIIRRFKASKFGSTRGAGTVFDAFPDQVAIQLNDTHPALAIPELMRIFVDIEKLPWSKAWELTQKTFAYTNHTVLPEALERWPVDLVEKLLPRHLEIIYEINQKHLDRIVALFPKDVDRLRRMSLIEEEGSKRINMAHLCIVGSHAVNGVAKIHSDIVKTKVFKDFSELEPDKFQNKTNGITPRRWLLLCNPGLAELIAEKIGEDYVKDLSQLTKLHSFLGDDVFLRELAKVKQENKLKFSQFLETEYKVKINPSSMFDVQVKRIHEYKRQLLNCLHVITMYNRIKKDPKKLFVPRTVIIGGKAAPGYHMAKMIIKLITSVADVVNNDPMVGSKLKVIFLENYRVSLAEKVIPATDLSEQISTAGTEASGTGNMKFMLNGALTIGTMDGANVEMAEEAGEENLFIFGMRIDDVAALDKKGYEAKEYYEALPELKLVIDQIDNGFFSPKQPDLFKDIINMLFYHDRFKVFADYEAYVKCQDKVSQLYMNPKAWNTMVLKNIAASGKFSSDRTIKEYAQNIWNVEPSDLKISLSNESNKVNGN
In words: Liver glycogen phosphorylase activity, forward reaction system (NADPH detection at 340 nm). In kind it is biochemical. Conditions: enzyme inhibitory activity against recombinant human liver glycogen phosphorylase (Sf9 cell lysate), room temperature, 75 minutes. The protocol: The glycogen phosphorylase activity was determined by a method using a forward reaction system.
The following method was used to determine the glycogen phosphorylase activity using a forward reaction system. Glucose-1-phosphate generated from glycogen by glycogen phosphorylase was converted to glucono-δ-lactone-6-phosphate by transphosphorylation and dehydrogenation reactions using phosphoglucomutase and glucose-6-phosphate dehydrogenase (G6PDH). At this time, NADPH generated from NADP in the dehydrogenation reaction by G6PDH was detected.
An enzyme solution of human liver glycogen phosphorylase was obtained by diluting with 100 mmol/L BES buffer (pH 6.8, containing 2 mmol/L EDTA) a suspension disrupted Sf9 cells in which a recombinant human liver glycogen phosphorylase was forcibly expressed. Phosphate buffer (16 mmol/L KH2PO4, containing 24 mmol/L Na2HPO4) was used as a substrate solution. A mixture of 8 U/mL phosphoglucomutase and 60 U/mL G6PDH was prepared with BES buffer. A reaction buffer (1.4 mmol/L NADP, 30 mmol/L MgCl2, 8 μmol/L glucose-1,6-diphosphate, 8 mg/mL glycogen, 40 mmol/L BES, containing 0.8 mmol/L EDTA) and a glucose solution (75 mmol/L glucose and 100 mmol/L BES, containing 2 mmol/L EDTA) were prepared. A test substance was dissolved in 1% DMSO aqueous solution.
To a mixture of the glucose solution (20 μL), the substrate solution (20 μL), the reaction buffer (100 μL), and the test substance (20 μL), the recombinant human liver glycogen phosphorylase solution (20 μL), and a mixture (20 μL) of phosphoglucomutase and G6PDH were added to initiate an enzymatic reaction. To a control, 1% DMSO aqueous solution was added instead of the test substance. A solution to which the substrate was not added was used as a blank. After initiation of the reaction, absorbance at 340 nm was measured immediately. The reaction was performed at room temperature for 75 minutes, and then absorbance at 340 nm was measured again. The enzyme activity was obtained by deducting the change in absorbance of the blank for 75 minutes from the change in absorbance over 75 minutes. The inhibition rate (%) of the test substance was calculated by “(1−(enzyme activity of test substance)/(enzyme activity of control))×100”.
“IC50” represents an enzyme inhibitory activity against human liver glycogen phosphorylase.

Where only a bound is given, the exact number is not on record here.

What is called IC50 is the midpoint of a concentration-inhibition curve.

In the case of `CCOC(=O)c1cc(CNC(=O)c2cc(NC(=O)c3cc(F)c(F)cc3Cl)[nH]n2)on1` [Example 1-23, 5-(2-chloro-4,5-difluoro-benzoylamino)-1H-pyrazole-3-carboxylic acid (3-ethoxycarbonylisoxazol-5-ylmethyl)-amide], the IC50 was less than 100 nM. In the case of `CSCCc1oc(C)nc1CNC(=O)c1cc(NC(=O)c2cc(F)c(F)cc2Cl)[nH]n1` [Example 1-24, 5-(2-chloro-4,5-difluoro-benzoylamino)-1H-pyrazole-3-carboxylic acid [2-methyl-5-(2-methylsulfanyl-ethyl)-oxazol-4-ylmethyl]-amide] it was less than 100 nM.

Consider `Cc1nc(-c2ccc(F)cc2)c(CNC(=O)c2cc(NC(=O)c3cc(F)c(F)cc3Cl)[nH]n2)o1` [Example 1-25, 5-(2-chloro-4,5-difluoro-benzoylamino)-1H-pyrazole-3-carboxylic acid [4-(4-fluoro-phenyl)-2-methyl-oxazol-5-ylmethyl]-amide], for which the half-inhibitory concentration (IC50) is less than 100 nM. Take `Cc1nc(-c2cccc(F)c2)c(CNC(=O)c2cc(NC(=O)c3cc(F)c(F)cc3Cl)[nH]n2)o1` [Example 1-26, 5-(2-chloro-4,5-difluoro-benzoylamino)-1H-pyrazole-3-carboxylic acid [4-(3-fluoro-phenyl)-2-methyl-oxazol-5-ylmethyl]-amide]: the IC50 is less than 100 nM.

In the case of `Cc1nc(-c2ccccc2F)c(CNC(=O)c2cc(NC(=O)c3cc(F)c(F)cc3Cl)[nH]n2)o1` [Example 1-27, 5-(2-chloro-4,5-difluoro-benzoylamino)-1H-pyrazole-3-carboxylic acid [4-(2-fluoro-phenyl)-2-methyl-oxazol-5-ylmethyl]-amide], the IC50 was less than 100 nM. Turning to `Cc1nc(-c2ccc(Cl)cc2)c(CNC(=O)c2cc(NC(=O)c3cc(F)c(F)cc3Cl)[nH]n2)o1` [Example 1-28, 5-(2-chloro-4,5-difluoro-benzoylamino)-1H-pyrazole-3-carboxylic acid [4-(4-chloro-phenyl)-2-methyl-oxazol-5-ylmethyl]-amide], the IC50 is less than 100 nM.

As for `Cc1ccc(-c2nc(C)oc2CNC(=O)c2cc(NC(=O)c3cc(F)c(F)cc3Cl)[nH]n2)cc1` [Example 1-29, 5-(2-chloro-4,5-difluoro-benzoylamino)-1H-pyrazole-3-carboxylic acid [4-(4-methyl-phenyl)-2-methyl-oxazol-5-ylmethyl]-amide], the IC50 was less than 100 nM. In the case of `Cc1cccc(-c2nc(C)oc2CNC(=O)c2cc(NC(=O)c3cc(F)c(F)cc3Cl)[nH]n2)c1` [Example 1-30, 5-(2-chloro-4,5-difluoro-benzoylamino)-1H-pyrazole-3-carboxylic acid [4-(3-methyl-phenyl)-2-methyl-oxazol-5-ylmethyl]-amide], the IC50 is less than 100 nM.

With `COc1cccc(-c2nc(C)oc2CNC(=O)c2cc(NC(=O)c3cc(F)c(F)cc3Cl)[nH]n2)c1` [Example 1-31, 5-(2-chloro-4,5-difluoro-benzoylamino)-1H-pyrazole-3-carboxylic acid [4-(3-methoxy-phenyl)-2-methyl-oxazol-5-ylmethyl]-amide], the IC50 is less than 100 nM. Take `Cc1nc(-c2ccc(-c3ccccc3)cc2)c(CNC(=O)c2cc(NC(=O)c3cc(F)c(F)cc3Cl)[nH]n2)o1` [Example 1-32, 5-(2-chloro-4,5-difluoro-benzoylamino)-1H-pyrazole-3-carboxylic acid (4-biphenyl-4-yl-2-methyl-oxazol-5-ylmethyl)-amide]: the concentration for half-maximal inhibition (IC50) was less than 100 nM. Regarding `Cc1nc(CCc2ccccc2)c(CNC(=O)c2cc(NC(=O)c3cc(F)c(F)cc3Cl)[nH]n2)o1` [Example 1-33, 5-(2-chloro-4,5-difluoro-benzoylamino)-1H-pyrazole-3-carboxylic acid (2-methyl-4-phenethyl-oxazol-5-ylmethyl)-amide], the IC50 was less than 100 nM.

For the compound `CCOC(=O)c1nc(C)oc1CNC(=O)c1cc(NC(=O)c2cc(F)c(F)cc2Cl)[nH]n1` [Example 1-34, 5-(2-chloro-4,5-difluoro-benzoylamino)-1H-pyrazole-3-carboxylic acid (4-ethoxycarbonyl-2-methyl-oxazol-5-ylmethyl)-amide], the IC50 was less than 100 nM. In the case of `Cc1nc(CO)c(CNC(=O)c2cc(NC(=O)c3cc(F)c(F)cc3Cl)[nH]n2)o1` [Example 1-35, 5-(2-chloro-4,5-difluoro-benzoylamino)-1H-pyrazole-3-carboxylic acid (4-hydroxymethyl-2-methyl-oxazol-5-ylmethyl)-amide] it was less than 100 nM; in that of `Cc1nc(Cc2ccccc2)c(CNC(=O)c2cc(NC(=O)c3cc(F)c(F)cc3Cl)[nH]n2)o1` [Example 1-36, 5-(2-chloro-4,5-difluoro-benzoylamino)-1H-pyrazole-3-carboxylic acid (4-benzyl-2-methyl-oxazol-5-ylmethyl)-amide p-toluenesulfonate], less than 100 nM. In the case of `Cc1nc(C2CC2)c(CNC(=O)c2cc(NC(=O)c3cc(F)c(F)cc3Cl)[nH]n2)o1` [Example 1-37, 5-(2-chloro-4,5-difluoro-benzoylamino)-1H-pyrazole-3-carboxylic acid (4-cyclopropyl-2-methyl-oxazol-5-ylmethyl)-amide] it was less than 100 nM. Take `Cc1nc(C2CCCCC2)c(CNC(=O)c2cc(NC(=O)c3cc(F)c(F)cc3Cl)[nH]n2)o1` [Example 1-38, 5-(2-chloro-4,5-difluoro-benzoylamino)-1H-pyrazole-3-carboxylic acid (4-cyclohexyl-2-methyl-oxazol-5-ylmethyl)-amide]: the IC50 is less than 100 nM. For `Cc1nc(C2CC2)oc1CNC(=O)c1cc(NC(=O)c2cc(F)c(F)cc2Cl)[nH]n1` [Example 1-39, 5-(2-chloro-4,5-difluoro-benzoylamino)-1H-pyrazole-3-carboxylic acid (2-cyclopropyl-4-methyl-oxazol-5-ylmethyl)-amide], the IC50 was less than 100 nM. In the case of `Cc1nc(C2CCCCC2)oc1CNC(=O)c1cc(NC(=O)c2cc(F)c(F)cc2Cl)[nH]n1` [Example 1-40, 5-(2-chloro-4,5-difluoro-benzoylamino)-1H-pyrazole-3-carboxylic acid (2-cyclohexyl-4-methyl-oxazol-5-ylmethyl)-amide], the IC50 is less than 100 nM. For the compound `Cc1nc(Cc2ccccc2)oc1CNC(=O)c1cc(NC(=O)c2cc(F)c(F)cc2Cl)[nH]n1` [Example 1-41, 5-(2-chloro-4,5-difluoro-benzoylamino)-1H-pyrazole-3-carboxylic acid (2-benzyl-4-methyl-oxazol-5-ylmethyl)-amide], the IC50 is less than 100 nM. For `Cc1nc(CCc2ccccc2)oc1CNC(=O)c1cc(NC(=O)c2cc(F)c(F)cc2Cl)[nH]n1` [Example 1-42, 5-(2-chloro-4,5-difluoro-benzoylamino)-1H-pyrazole-3-carboxylic acid (4-methyl-2-phenethyl-oxazol-5-ylmethyl)-amide], the IC50 is less than 100 nM. `Cc1nc(COC(c2ccccc2)(c2ccccc2)c2ccccc2)oc1CNC(=O)c1cc(NC(=O)c2cc(F)c(F)cc2Cl)[nH]n1` [Example 1-43, 5-(2-chloro-4,5-difluoro-benzoylamino)-1H-pyrazole-3-carboxylic acid (4-methyl-2-trityloxymethyl-oxazol-5-ylmethyl)-amide]: the IC50 was greater than 300 nM. Turning to `Cc1nc(COc2ccccc2)oc1CNC(=O)c1cc(NC(=O)c2cc(F)c(F)cc2Cl)[nH]n1` [Example 1-44, 5-(2-chloro-4,5-difluoro-benzoylamino)-1H-pyrazole-3-carboxylic acid (4-methyl-2-phenoxymethyl-oxazol-5-ylmethyl)-amide], the IC50 is less than 100 nM.

The values above are taken from patent US20090036450A1, “PYRAZOLE COMPOUNDS AND USE THEREOF” (JAPAN TOBACCO, INC., priority 2006, published 2009).
